Data on eleven compounds can be found in ChEMBL document CHEMBL1145761 (Bioorg Med Chem Lett, 2003).

This test deals with Neuronal acetylcholine receptor; alpha4/beta2 (Rattus norvegicus, UniProt P09483+P12390). Description: Affinity at alpha4-beta2 nACh receptors in rat brain (minus cerebellum) homogenates. The class given is tissue-based.
Neuronal acetylcholine receptor; alpha4/beta2, sequence (P09483 whole entry): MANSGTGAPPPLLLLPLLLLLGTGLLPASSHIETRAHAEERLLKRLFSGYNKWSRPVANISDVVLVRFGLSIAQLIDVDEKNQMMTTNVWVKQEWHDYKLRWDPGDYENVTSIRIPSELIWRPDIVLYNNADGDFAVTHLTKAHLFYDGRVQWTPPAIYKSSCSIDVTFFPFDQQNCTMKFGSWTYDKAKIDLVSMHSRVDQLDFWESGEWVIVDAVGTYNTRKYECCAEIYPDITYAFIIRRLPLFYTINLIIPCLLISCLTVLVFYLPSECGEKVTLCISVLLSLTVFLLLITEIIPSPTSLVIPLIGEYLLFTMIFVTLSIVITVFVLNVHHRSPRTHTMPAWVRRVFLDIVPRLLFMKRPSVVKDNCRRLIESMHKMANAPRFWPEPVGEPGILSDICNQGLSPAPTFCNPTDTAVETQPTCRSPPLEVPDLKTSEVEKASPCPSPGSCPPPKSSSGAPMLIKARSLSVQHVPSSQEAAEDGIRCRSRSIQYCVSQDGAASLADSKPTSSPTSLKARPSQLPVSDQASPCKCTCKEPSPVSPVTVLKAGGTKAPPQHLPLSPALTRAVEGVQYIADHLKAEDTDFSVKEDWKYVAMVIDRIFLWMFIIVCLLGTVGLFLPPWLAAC
Neuronal acetylcholine receptor; alpha4/beta2, sequence (P12390 whole entry): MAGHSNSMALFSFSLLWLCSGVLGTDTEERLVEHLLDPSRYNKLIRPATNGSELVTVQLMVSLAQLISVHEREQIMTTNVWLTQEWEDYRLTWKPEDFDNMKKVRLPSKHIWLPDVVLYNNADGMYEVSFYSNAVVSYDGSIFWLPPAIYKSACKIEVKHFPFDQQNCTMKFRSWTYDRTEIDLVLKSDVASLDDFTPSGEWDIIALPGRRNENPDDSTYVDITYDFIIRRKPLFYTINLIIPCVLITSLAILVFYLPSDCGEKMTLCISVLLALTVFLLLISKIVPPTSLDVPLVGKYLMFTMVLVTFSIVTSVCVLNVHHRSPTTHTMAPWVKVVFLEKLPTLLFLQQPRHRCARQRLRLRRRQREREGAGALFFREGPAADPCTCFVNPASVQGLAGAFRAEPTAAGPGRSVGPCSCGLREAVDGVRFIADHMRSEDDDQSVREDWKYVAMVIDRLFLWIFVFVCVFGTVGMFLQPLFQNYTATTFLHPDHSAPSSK
For orientation: Ki means a dissociation constant, usually derived from enzyme kinetics or from competition with a known ligand. Take `CN1CCCC1c1ccc(-c2ccccc2)nc1` (stereo unspecified): the Ki was found to be 9440 nM. That is a single-digit micromolar value.
With `COc1ccc(CC2=NCCN2C)cn1` the figure was 46 nM.
Next, `CN1CCN=C1Cc1cnc2ccccc2c1`: 38 nM; `CN1CCN=C1Cc1ccc(Cl)nc1`: 3.3 nM.
Next, `c1cncc(C2=NCCC2)c1` [MYOSMINE]: 3300 nM; `CN1CCN=C1Cc1ccc(Br)nc1`: 7.3 nM.
`c1ccc(CN2CCCC2c2cccnc2)cc1` (stereo unspecified) had a Ki of 360 nM.
In turn, `CN1CCN=C1Cc1ccc(-c2ccccc2)nc1` had a Ki of 3260 nM. This Ki is about 9.1-fold higher than that of the compound before.
`CN1CCCC1c1ccc(Br)nc1` (stereo unspecified) gave a Ki of 0.5 nM.
In turn, `CN1CCCC1c1cnc2ccccc2c1` (stereo unspecified) registered a Ki of 11 nM.
With `CN1CCCC1c1ccc(Cl)nc1` (stereo unspecified) the figure was 0.6 nM.
